Measurements: patent publication US12448377B2, “Heterocyclic compound” (Takeda Pharmaceutical Company Limited, priority 2019, dated 2025)

Tests used:
[1] = target: T1, human orexin type 2 receptor (Homo sapiens, UniProt O43614); assay: Measurement of orexin type 2 receptor agonist activity (calcium fluorescence, CHO cells forcibly expressing human OX2 receptor); assay type: cell-based; conditions: compound at 3 μM, DMSO = 0%, orexin A (human) 10 nM = 100%
T1 construct: expressed in transfected cells
T1 sequence (O43614 1-444): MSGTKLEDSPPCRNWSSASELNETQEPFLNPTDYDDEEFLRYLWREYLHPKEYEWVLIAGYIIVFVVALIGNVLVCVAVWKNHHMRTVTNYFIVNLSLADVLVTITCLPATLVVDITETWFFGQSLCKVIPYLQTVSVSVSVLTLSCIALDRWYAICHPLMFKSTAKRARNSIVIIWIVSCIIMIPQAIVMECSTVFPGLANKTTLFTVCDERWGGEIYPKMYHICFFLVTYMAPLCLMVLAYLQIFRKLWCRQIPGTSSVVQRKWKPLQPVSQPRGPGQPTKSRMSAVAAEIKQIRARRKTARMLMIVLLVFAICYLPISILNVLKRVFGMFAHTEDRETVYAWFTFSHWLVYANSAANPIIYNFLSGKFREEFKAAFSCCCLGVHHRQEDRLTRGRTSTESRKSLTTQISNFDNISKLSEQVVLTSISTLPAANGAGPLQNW
Summary of the method: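 Agonism measured as Fluo-4 calcium fluorescence in CHO-K1 cells stably expressing human OX2 receptor, loaded 30 min at 37° C then 30 min at room temperature with probenecid. Signal recorded about 2 min 40 sec after compound; activity (%) normalised to DMSO (0%) and 10 nM human orexin A (100%).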

cynomolgus monkeys = assay: Evaluation of wake-promoting effects in cynomolgus monkeys (EEG/EMG/EOG); assay type: in vivo, cynomolgus monkey; conditions: s.c., at ZT12, 4 h after administration
Protocol: The wake-promoting effects were evaluated by measuring the electroencephalogram (EEG), electromyogram (EMG) and electrooculogram (EOG) in cynomolgus monkeys. Under isoflurane anesthesia (1-5%, Pfizer Japan Inc., Tokyo, Japan), male cynomolgus monkeys (2-3 years old, Hamri Co., Ltd., Ibaraki, Japan) were surgically implanted with radio-telemetry transmitters (TL10M3-D70-EEE, Data Sciences International Inc., MN, USA). EEG leads were stereotaxically positioned at the parietal area and secured to the cranium with stainless-steel screws in contact with the dura. […] Bilateral EMG leads were implanted into the back cervical muscles. After the surgery, each monkey was given penicillin (100,000 units/head, i.m., Meiji Seika Pharma Co., Ltd., Tokyo, Japan), buprenorphine (0.02 mg/kg, i.m., Otsuka Pharmaceutical Co., Ltd., Tokyo, Japan) and prednisolone (1 mg/kg, s.c., Kyoritsu Seiyaku Co., Ltd., Tokyo, Japan) daily for one week. After at least a 1-month recovery period in home cages, the monkeys were habituated to the recording chamber (an acrylic cage 60W×55D×75H (cm)) located in a soundproof, electrically shielded room. After confirming that the monkeys slept sufficiently in the experimental room, the cortical EEG, EMG and EOG signals were recorded using Dataquest ART software (Data Sciences International Inc., MN, USA). The signals were semi automatically scored in 20 sec epochs by a sleep scoring system (SleepSign, Kissei Comtec Co., Ltd., Nagano, Japan). This preliminary scoring was visually inspected and corrected if necessary. Test compound (0.1, 0.3, 1 or 10 mg/kg, Table 4) dissolved in a mixed solution containing 5% DMSO, 5% Cremophor EL, 20% PEG400 and 70% soluplus (1% (w/v)), or vehicle (i.e., a mixed solution containing 5% DMSO, 5% Cremophor EL, 20% PEG400 and 70% soluplus (1% (w/v))) was administered subcutaneously (s.c.) to the cynomolgus monkeys at ZT12 in a volume of 0.5 mL/kg in a pre-post design. The EEG, EMG and EOG recordings were performed for 4 h after the compound administration. The time spent in wakefulness for 4 h after administration (% of vehicle treatment) was calculated by using SleepSign.

SD rats = assay: Evaluation of wake-promoting effects in SD rats (EEG/EMG); assay type: in vivo, rat; conditions: s.c., 1 mg/kg, at ZT5, 3 hr after administration
Protocol: The wake-promoting effects were evaluated by measuring the electroencephalogram (EEG) and electromyogram (EMG) in SD rats (Crl:CD(SD), CHARLES RIVER LABORATORIES JAPAN, Kanagawa, Japan.) using chronic experiment telemetry automatic measurement system (PhysioTel® and PONEMAH™, Data Sciences International Inc., Minnesota, U.S.A.). Under pentobarbital sodium anesthesia (50 mg/kg, intraperitoneal, Somnopentyl®, Kyoritsu Seiyaku, Tokyo, Japan), […] male SD rats were surgically implanted with a transmitter. Bilateral EEG leads were positioned at the parietal area in contact with the dura and fixed to the cranium with dental cement. Bilateral EMG leads were fixed to the back cervical muscles. The transmitter was implanted under the skin of the back, and the head skin was sutured. After recovery for at least 1 week, the cortical EEG and EMG signals in SD rats were recorded using a high-end data acquisition and real-time analysis system (PONEMAH™). The signals were automatically scored in 4 sec epochs by a sleep scoring system (SleepSign®, Kissei Comtec Co., Ltd.). Test compound (1 or 10 mg/kg, Table 3) dissolved in a mixed solution containing 10% DMSO, 10% Cremophor EL, 20% PEG400 and 60% H2O, or vehicle (i.e., a mixed solution containing 10% DMSO, 10% Cremophor EL, 20% PEG400 and 60% H2O) was administered subcutaneously (s.c.) to the SD rats at zeitgeber time (ZT) 5 (when the start time of the light cycle was ZT0) in a volume of 5 mL/kg. The EEG and EMG recordings were performed for 3 hr after the compound administration. The time spent in wakefulness for 3 hr after administration (% of vehicle treatment) was calculated by using SleepSign.

Row | OX2R agonist activity (3 μM, %) [1] [%] | SMILES | also measured
1 | 68 | CCC1CCC(OCC2C(NS(C)(=O)=O)CCc3ccc(C)c(=O)n32)CC1 [Example 9, rel-N-[(3S,4R)-4-({[(1s,4S)-4-ethylcyclohexyl]oxy}methyl)-7-methyl-6-oxo-1,3,4,6-tetrahydro-2H-quinolizin-3-yl]methanesulfonamide] | Wakefulness time (% of vehicle treatment) (Mean, n = 2) (cynomolgus monkeys; 0.3 mg/kg): 521.43 % of vehicle treatment
2 | 65 | CCCOC1CCC(OCC2C(NS(C)(=O)=O)CCc3ccc(C)c(=O)n32)CC1 [Example 107, rel-N-[(3S,4R)-7-methyl-6-oxo-4-({[(1s,4S)-4-propoxycyclohexyl]oxy}methyl)-1,3,4,6-tetrahydro-2H-quinolizin-3-yl]methanesulfonamide] | –
3 | 98 | Cc1ccc2n(c1=O)C(COC1CCC(C3CC3)CC1)C(NS(C)(=O)=O)CC2 [Example 111, rel-N-[(3S,4R)-4-({[(1s,4S)-4-cyclopropylcyclohexyl]oxy}methyl)-7-methyl-6-oxo-1,3,4,6-tetrahydro-2H-quinolizin-3-yl]methanesulfonamide] | Wakefulness time (% of vehicle treatment) (Mean, n = 2) (SD rats): 126.37 % of vehicle treatment
4 | 94 | CCS(=O)(=O)NC1CCc2ccc(C)c(=O)n2C1COC1CCC(C2CC2)CC1 [Example 112, rel-N-[(3S,4R)-4-({[(1s,4S)-4-cyclopropylcyclohexyl]oxy}methyl)-7-methyl-6-oxo-1,3,4,6-tetrahydro-2H-quinolizin-3-yl]ethanesulfonamide] | Wakefulness time (% of vehicle treatment) (Mean, n = 2) (cynomolgus monkeys; 0.1 mg/kg): 671.65 % of vehicle treatment
5 | 69 | Cc1ccc2n(c1=O)C(COC1CCC(OCC3CC3)CC1)C(NS(C)(=O)=O)CC2 [Example 114, rel-N-[(3S,4R)-4-(([(1s,4S)-4-(cyclopropylmethoxy)cyclohexyl]oxy}methyl)-7-methyl-6-oxo-1,3,4,6-tetrahydro-2H-quinolizin-3-yl]methanesulfonamide] | –
6 | 96 | CCOC1CCC(OCC2C(NS(C)(=O)=O)CCc3ccc(C)c(=O)n32)CC1 [Example 145, rel-N-[(3S,4R)-4-({[(1s,4S)-4-ethoxycyclohexyl]oxy}methyl)-7-methyl-6-oxo-1,3,4,6-tetrahydro-2H-quinolizin-3-yl]methanesulfonamide] | Wakefulness time (% of vehicle treatment) (Mean, n = 2) (cynomolgus monkeys; 10 mg/kg): 277.67 % of vehicle treatment

The remaining lines, values behind:

Row | SMILES | OX2R agonist activity (3 μM, %) [1] [%] | also measured
7 | Cc1ccc2n(c1=O)C(COC1CCC(c3ccccc3)CC1)C(NS(C)(=O)=O)CC2 [Example 6, rel-N-[(3S,4R)-7-methyl-6-oxo-4-({[(1s,4S)-4-phenylcyclohexyl]oxy}methyl)-1,3,4,6-tetrahydro-2H-quinolizin-3-yl]methanesulfonamide] | 92 | Wakefulness time (% of vehicle treatment) (Mean, n = 2) (cynomolgus monkeys; 0.3 mg/kg): 352.87 % of vehicle treatment
8 | CCCC1CCC(OCC2C(NS(=O)(=O)C3CC3)CCc3ccc(C)c(=O)n32)CC1 [Example 78, rel-N-[(3S,4R)-7-methyl-6-oxo-4-({[(1r,4S)-4-propylcyclohexyl]oxy}methyl)-1,3,4,6-tetrahydro-2H-quinolizin-3-yl]cyclopropanesulfonamide] | 88 | Wakefulness time (% of vehicle treatment) (Mean, n = 2) (SD rats): 130.53 % of vehicle treatment
9 | CC1CCC(OCC2C(NS(C)(=O)=O)CCc3ccc(C4CC4)c(=O)n32)CC1 [Example 105, rel-N-[(3S,4R)-7-cyclopropyl-4-({[(1s,4S)-4-methylcyclohexyl]oxy)methyl)-6-oxo-1,3,4,6-tetrahydro-2H-quinolizin-3-yl]methanesulfonamide] | 84 | –
10 | CCC1CCC(OCC2C(NS(C)(=O)=O)CCc3c(Br)cc(C)c(=O)n32)CC1 [Example 106, rel-N-[(3S,4R)-9-bromo-4-({[(1s,4S)-4-ethylcyclohexyl]oxy}methyl)-7-methyl-6-oxo-1,3,4,6-tetrahydro-2H-quinolizin-3-yl]methanesulfonamide] | 91 | –
11 | Cc1ccc2n(c1=O)C(COC1CCC(C3CC3)CC1)C(NS(=O)(=O)C1CC1)CC2 [Example 113, rel-N-[(3S,4R)-4-({[(1s,4S)-4-cyclopropylcyclohexyl]oxy}methyl)-7-methyl-6-oxo-1,3,4,6-tetrahydro-2H-quinolizin-3-yl]cyclopropanesulfonamide] | 87 | Wakefulness time (% of vehicle treatment) (Mean, n = 2) (cynomolgus monkeys; 0.1 mg/kg): 380.66 % of vehicle treatment
12 | CCC1CCC(OCC2C(NS(C)(=O)=O)CCc3c(C4CC4)cc(C)c(=O)n32)CC1 [Example 115, rel-N-[(3S,4R)-9-cyclopropyl-4-({[(1s,4S)-4-ethylcyclohexyl]oxy)methyl)-7-methyl-6-oxo-1,3,4,6-tetrahydro-2H-quinolizin-3-yl]methanesulfonamide] | 100 | –
13 | CC#CC1CCC(OCC2C(NS(=O)(=O)N(C)C)CCc3ccc(C)c(=O)n32)CC1 [Example 144, rel-N,N-dimethyl-N′-[(3S,4R)-7-methyl-6-oxo-4-({[(1s,4S)-4-(prop-1-yn-1-yl)cyclohexyl]oxy}methyl)-1,3,4,6-tetrahydro-2H-quinolizin-3-yl]sulfuric diamide] | 99 | –
14 | CC#CC1CCC(OCC2C(NS(=O)(=O)CC)CCc3ccc(C)c(=O)n32)CC1 [Example 147, rel-N-[(3S,4R)-7-methyl-6-oxo-4-({[(1s,4S)-4-(prop-1-yn-1-yl)cyclohexyl]oxy}methyl)-1,3,4,6-tetrahydro-2H-quinolizin-3-yl]ethanesulfonamide] | 99 | Wakefulness time (% of vehicle treatment) (Mean, n = 2) (cynomolgus monkeys; 1 mg/kg): 389.64 % of vehicle treatment
15 | CC#CC1CCC(OCC2C(NS(=O)(=O)C3CC3)CCc3ccc(C)c(=O)n32)CC1 [Example 148, rel-N-[(3S,4R)-7-methyl-6-oxo-4-({[(1s,4S)-4-(prop-1-yn-1-yl)cyclohexyl]oxy}methyl)-1,3,4,6-tetrahydro-2H-quinolizin-3-yl]cyclopropanesulfonamide] | 97 | Wakefulness time (% of vehicle treatment) (Mean, n = 2) (cynomolgus monkeys; 1 mg/kg): 324.87 % of vehicle treatment
16 | CC#CC1CCC(OCC2C(NS(=O)(=O)NC)CCc3ccc(C)c(=O)n32)CC1 [Example 149, rel-N-methyl-N′-[(3S,4R)-7-methyl-6-oxo-4-({[(1s,4S)-4-(prop-1-yn-1-yl)cyclohexyl]oxy}methyl)-1,3,4,6-tetrahydro-2H-quinolizin-3-yl]sulfuric diamide] | 95 | –
